Measurements: patent US20240203290A1, “VITRO MODEL DEVICE FOR CORNEA BARRIER” (CFD Research Corporation, priority 2022, published 2024)

How the values were obtained:
Assay type in all cases: cell-based
[1] = system: corneal barrier of the microfluidic in vitro cornea device; assay: Morphological observation of the chambers after trypan blue exposure; settings: trypan blue injected into TFEp channel at 3 μL/min for 4 min, incubated at 37° C. for 15 min; observed at any chamber
[2] = system: cells of the microfluidic in vitro cornea device; assay: Cytotoxicity by adenylate kinase release (luminescence) from cell-laden channels; settings: trypan blue exposure; compared with positive control (lysis buffer) and negative control (media only)
Experimental: (§1) In some embodiments, all channels of the device can be coated with human fibronectin to facilitate cellular attachment. For example, primary human corneal fibroblasts can be seeded on Day 0. Fibroblasts can be harvested, concentrated to 1×10^7 cells/mL and injected into the stromal chamber via a remote head syringe pump at 5 μL/min until cells are homogenously distributed. Devices can then be incubated at 37° C., 5% CO2 for 4 hours to allow for attachment. Media can be subsequently refreshed every 24 hours. Primary human corneal epithelial cells can be seeded into the TFEp circulation channel on Day 3. […]
(§2) Viability can be assessed on-chip as an endpoint for epithelial, fibroblast, and endothelial cells. Devices are prepared for viability quantitation by incubation with calcein AM and ethidium homodimer in PBS. After rinsing the cells with PBS, fluorescent images are taken via microscope, and the data was analyzed to determine cornea triculture viability (sec, FIG. 5A). […]
(§3) Following exposure, FSS can be injected into the TFEp channel and permeability assayed. […] Samples can be taken from cell-laden channels (individually or combined) and placed in a low volume, white walled […] plate for luminescence analysis using a plate reader. […] The increase in AK release in arbitrary luminescence units compares the toxic exposure of trypan blue to positive and negative controls.

[3] = system: corneal barrier of the microfluidic in vitro cornea device (epithelial, fibroblast, endothelial triculture); assay: FSS permeability of the in vitro cornea device after trypan blue exposure; settings: trypan blue injected into TFEp channel at 3 μL/min for 4 min, incubated at 37° C. for 15 min; then FSS injected into TFEp channel
Experimental: as §1, §2
as §3, with “controls. […]” for “controls.”

Structure (SMILES): Cc1cc(-c2ccc(/N=N/c3c(S(=O)(=O)O)cc4cc(S(=O)(=O)O)cc(N)c4c3O)c(C)c2)ccc1/N=N/c1c(S(=O)(=O)O)cc2cc(S(=O)(=O)O)cc(N)c2c1O [trypan blue]
- Morphological effects of exposure [1]: evidence of barrier degradation (e.g., cell death and detachment) and apoptosis
- Increase in adenylate kinase release [2]: 1.5 fold
- Permeability in trypan blue treated devices compared to controls [3]: 10 fold
